Data on 2 compounds can be found in US5849766A, “Carbamoyl substituted heterocycles” (Eli Lilly and Company, priority 1997, dated 1998).

This assay deals with thromboxane receptor. Description: Absence of Agonist Activity (pressor response in pithed rats). In kind it is in vivo, rat. The source says: 3. Absence of Agonist Activity.

For `O=C(O)CCCC/C=C(\c1ccc(-c2nc(C(=O)NCCCCC3CCCCC3)co2)cc1)c1cccnc1` [Example 2, (E)-7-[4-[4-[[(4-Cyclohexylbutyl)amino]carbonyl]-2-oxazolyl]phenyl]-7-(3-pyridyl)hept-6-enoic Acid], under “i.v., pithed rats, doses up to 10 mg/kg”, the “pressor response (TXA2 agonist activity)” value is recorded as “absence of a pressor response”.

Regarding `O=C(O)CCC/C=C\CC1C2CCC(C2)C1NS(=O)(=O)c1ccccc1` (centres unmarked) [Example S-145], the “increase in the mean arterial pressure” value (0.1 mg/kg i.v., at one minute after dosing) is listed as “transient, but significant, increase in the mean arterial pressure”.
